This is an account of results in patent US20190119348A1, “PARATHYROID HORMONE RECEPTOR 1 ANTAGONIST AND INVERSE AGONIST POLYPEPTIDES AND METHODS OF THEIR USE” (The General Hospital Corporation, priority 2016, published 2019).

Test [1] has as its target T1, PTHR1 (Homo sapiens, UniProt Q03431).
T1 construct: expressed in transfected cells; host or cells: GP-2.3 (HEK-293 stably transfected with hPTHR1 and GloSensor)
T1 sequence (Q03431 27-593): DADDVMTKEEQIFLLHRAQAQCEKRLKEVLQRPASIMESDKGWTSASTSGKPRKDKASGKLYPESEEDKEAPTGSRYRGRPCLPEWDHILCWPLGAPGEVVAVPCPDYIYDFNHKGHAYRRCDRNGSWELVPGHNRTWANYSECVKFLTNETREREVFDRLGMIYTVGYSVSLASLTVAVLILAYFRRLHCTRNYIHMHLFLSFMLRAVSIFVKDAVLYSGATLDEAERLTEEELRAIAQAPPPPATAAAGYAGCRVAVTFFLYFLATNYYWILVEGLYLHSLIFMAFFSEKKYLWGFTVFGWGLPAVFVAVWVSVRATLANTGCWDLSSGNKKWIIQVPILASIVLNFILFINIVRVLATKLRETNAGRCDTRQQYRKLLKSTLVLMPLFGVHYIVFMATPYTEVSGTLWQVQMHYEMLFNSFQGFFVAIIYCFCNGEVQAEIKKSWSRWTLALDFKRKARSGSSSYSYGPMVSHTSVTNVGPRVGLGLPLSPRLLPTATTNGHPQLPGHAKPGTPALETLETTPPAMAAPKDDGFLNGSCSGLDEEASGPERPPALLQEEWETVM
The test can be described thus: Residual agonist activity, cAMP luminescence in GP-2.3 cells. The class given is cell-based. To be noted: ligands applied directly to GP-2.3 cells. Here is the method:
cAMP signaling was assessed in the HEK293-derived or SaOS2-derived cell lines stably expressing the luciferase-based GloSensor™ cAMP reporter (Hattersley et al., Paper presented at: Novel Signaling Mechanisms and Bone Cell Biology 2014; Binkowski et al., Methods in molecular biology. 756:263-271). HEK-293 cells were further transfected to stably express the hPTHR1, hPTHR1-H223R, or hPTHR1-T410P. The cells were seeded into 96-well white plates and were assayed 24 to 48 hours post-confluency. Assays were performed at room temperature in CO2-independent culture media (Life Technologies, Corp., Carlsbad, Calif.) containing 0.1% BSA (CIDB). The cells were pre-loaded with luciferin (0.5 mM in CIDB) for 15 minutes, then PTH peptides were added at varying concentrations. cAMP-dependent luminescence was measured at two-minute intervals using a PerkinElmer Envision plate reader. The time at which maximum luminescence (cps) observed with agonist alone, typically at 10-20 minutes after agonist addition, was used to obtain data from wells containing antagonist with or without agonist, to thus generate antagonist ligand dose-response curves. The resulting cps values were then plotted against ligand concentration using GraphPad Prism 7.0 software and a four-parameter logistics curve fitting equation, which yielded parameters of inhibitory potency (pIC50).

A further test concerns the target T2, wild-type PTHR (Mus musculus, UniProt P41593).
T2 construct: Wild-type mice were injected with a PTH agonist analog; from tissue; host or cells: whole animal, wild-type mice (C57BL/6J per methods)
T2 sequence (P41593 27-591): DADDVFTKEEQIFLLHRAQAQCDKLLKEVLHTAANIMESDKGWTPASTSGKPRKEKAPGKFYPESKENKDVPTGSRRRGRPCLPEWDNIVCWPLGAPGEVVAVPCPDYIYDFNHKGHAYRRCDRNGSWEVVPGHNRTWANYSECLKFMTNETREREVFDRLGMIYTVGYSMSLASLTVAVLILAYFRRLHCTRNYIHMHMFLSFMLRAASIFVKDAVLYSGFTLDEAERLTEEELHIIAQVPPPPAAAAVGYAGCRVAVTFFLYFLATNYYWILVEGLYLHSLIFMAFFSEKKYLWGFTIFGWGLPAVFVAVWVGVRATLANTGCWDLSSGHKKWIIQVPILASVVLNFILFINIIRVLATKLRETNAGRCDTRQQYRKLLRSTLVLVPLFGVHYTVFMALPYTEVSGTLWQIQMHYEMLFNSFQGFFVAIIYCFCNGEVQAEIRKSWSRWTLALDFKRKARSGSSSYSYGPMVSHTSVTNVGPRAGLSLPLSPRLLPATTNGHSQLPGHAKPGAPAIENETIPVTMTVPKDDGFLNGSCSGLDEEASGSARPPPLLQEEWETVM
The test can be described thus: Mouse model of hypercalcemia of malignancy (co-injection with PTHrP(1-36)), blood Ca2+. In kind it is in vivo. To be noted: 10-week old female CD1 mice; i.v. co-injection with PTHrP(1-36)-1880 10 nmol/kg; peptide 500 nmol/kg. As for the experimental part:
(§1) Mice were injected IV via the tail vein or subcutaneously with ligands in vehicle (0.05% Tween80; 10 mM citrate; 150 mM NaCl; pH 5.0) to give the intended final ligand dose (e.g. 50 nmol/kg body weight). At times immediately before (t=0) and after injection, tail vein blood was collected and analyzed for blood ionized calcium (Ca^2+) measured with a RAPIDLAB 348 analyzer (SIEMENS Healthcare Diagnostic, United Kingdom).
To study antagonism at the wild-type PTHR under conditions of excess PTHrP, as occurs in humans with hypercalcemia of malignancy, we co-injected wild-type mice with PTHrP(1-36) and a test antagonist and measured effects on blood Ca^2+ levels. The results are illustrated in FIG. 13.

Test [2] deals with T3, PTHR1 (Mus musculus, UniProt P41593).
T3 sequence (P41593 27-591): T2 sequence (P41593 27-591)
Description: Blood Ca2+ in wild-type mice after co-injection with PTH(1-34). Set-up: from tissue; host or cells: whole animal, wild-type mice (C57BL/6J per methods). In kind it is in vivo. To be noted: intravenous co-injection with PTH(1-34).
Text: Wilde-type, ca. 10-week old male C57BL/6J mice were purchased from the Charles River Laboratories (Wilmington, Mass., USA). The origin and method of breeding of Col1-H223R “Jansen's” transgenic mice is described by Calvi et al. (J. Clin. Invest., 107:277-286, 2001). Mice were maintained in facilities operated by the Center for Comparative Research of the Massachusetts General Hospital, and acclimated in the facilities for seven days prior to being used for study. All experimental procedures were approved by the MGH Institutional Animal Care and Use Committee (IACUC). In each study, animals were assigned randomly to treatment groups. Where possible, power calculations established that the number of animals used per study group was sufficient to detect statistically significant differences in intended primary experimental outcomes (i.e., changes in serum Ca and Pi).
as §1

SMILES strings stand for the structures. Where a SMILES comes first, the peptide text is derived from it. [ ]: non-standard residue; d: D form.

Take `CC[C@H](C)[C@H](N)C(=O)N[C@@H](CCC(N)=O)C(=O)N[C@@H](CC(C)C)C(=O)N[C@@H](CCSC)C(=O)N[C@@H](Cc1c[nH]cn1)C(=O)N[C@@H](CCC(N)=O)C(=O)N[C@@H](CCCNC(=N)N)C(=O)N[C@H](Cc1c[nH]c2ccccc12)C(=O)N[C@@H](CCCCN)C(=O)N[C@@H](Cc1c[nH]c2ccccc12)C(=O)N[C@H](C(=O)N[C@@H](CCC(N)=O)C(=O)N[C@@H](CC(=O)O)C(=O)N[C@@H](C)C(=O)N[C@@H](CCCNC(=N)N)C(=O)N[C@@H](CCCNC(=N)N)C(=O)N[C@@H](CCCNC(=N)N)C(=O)N[C@@H](C)C(=O)N[C@@H](Cc1c[nH]c2ccccc12)C(=O)N[C@@H](CC(C)C)C(=O)N[C@@H](Cc1c[nH]cn1)C(=O)N[C@@H](CCCCN)C(=O)N[C@@H](CC(C)C)C(=O)N[C@H](C(=O)N[C@@H](C)C(=O)N[C@@H](CCC(=O)O)C(=O)N[C@H](C(=O)N[C@@H](Cc1c[nH]cn1)C(=O)N[C@H](C(=O)N[C@@H](C)C(=O)N[C@@H](CCC(=O)O)C(=O)N[C@H](C(N)=O)[C@@H](C)CC)[C@@H](C)O)[C@@H](C)CC)[C@@H](C)CC)[C@@H](C)CC` [compound 1949, dW12, W23-LA-PTH(5-36)] (H-IQLMHQR[dW]KWIQDARRRAWLHKLIAEIHTAEI-NH2; N-terminus assumed): at PTHR1 [1], the “residual agonist activity compared with dTrp^12-PTH(7-34)-1894” value is on record as “less residual agonist activity”. The “effect on blood Ca^2+ levels (FIG. 13)” value at wild-type PTHR was “significant reduction of blood Ca^2+ levels”. Further, on PTHR1 [2], the “effect on calcemic response to PTH(1-34) (FIG. 11)” value is given as “inhibited the capacity of the injected PTH(1-34) agonist to induce a calcemic response”.
